The values that follow come from paper PMC11784200, “Insights into antibiotic resistance promoted by quinolone exposure” (Antimicrobial Agents and Chemotherapy, 2024).

For test [1], the system named is E. coli colonies that became resistant to CHL after CIP treatment. It is filed as cell-based.
The next test relates to E. coli marR mutant. Description: CHL MIC of marR mutant. The format is cell-based. To be noted: partial deletion of marR in WT E. coli. The procedure:
(§1) Minimum inhibitory concentration (MIC) values were determined in triplicate as described ([55]). […] All compounds were purchased from Sigma.

In the next test the test system is MG1655 ∆dinB. Kind of test: Broth-based MIC, ∆dinB. It is filed as cell-based, E. coli. Particulars: Escherichia coli. The procedure:
as §1

A further test concerns MG1655 ∆umuD. Description: Broth-based MIC, ∆umuD. The format is cell-based, E. coli. To be noted: Escherichia coli. The procedure: as §1
In a further test the test system is MG1655 lexA(S119A). Description: Broth-based MIC, lexA(S119A). Particulars: Escherichia coli. It is filed as cell-based, E. coli. The procedure: as §1
A further test has as its system MG1655 ∆polB. Description: Broth-based MIC, ∆polB. The format is cell-based, E. coli. To be noted: Escherichia coli. The procedure: as §1
The next test concerns MG1655 ΔdinB ΔpolB ΔumuD. Description: Broth-based MIC, ΔdinB ΔpolB ΔumuD. The format is cell-based, E. coli. Particulars: Escherichia coli. The procedure: as §1
The next test relates to MG1655 ∆recA. Description: Broth-based MIC, ∆recA. It is filed as cell-based, E. coli. Particulars: Escherichia coli. The procedure: as §1
Another test relates to E. coli MLS83L. Kind of test: Broth-based MIC, MLS83L. The format is cell-based. Particulars: Escherichia coli. The procedure: as §1
[2] abbreviates: colony 1, plates with 2× MIC after 24 h on LB without selection.
[3] abbreviates: colony 2, plates with 2× MIC after 24 h on LB without selection.
Where [4] appears, read: colony 3, plates with 2× MIC after 24 h on LB without selection.
Where [5] appears, read: colony 4, plates with 2× MIC after 24 h on LB without selection.
[6] abbreviates: colony 5, plates with 2× MIC after 24 h on LB without selection.
Where [7] appears, read: colony 6, plates with 2× MIC after 24 h on LB without selection.
[8] abbreviates: colony 7, plates with 2× MIC after 24 h on LB without selection.
[9] abbreviates: colony 8, plates with 2× MIC after 24 h on LB without selection.
Where [10] appears, read: colony 9, plates with 2× MIC after 24 h on LB without selection.
The mark [11] stands for this setting: colony 10, plates with 2× MIC after 24 h on LB without selection.
The mark [12] stands for this setting: colony 11, plates with 2× MIC after 24 h on LB without selection.
Where [13] appears, read: colony 12, plates with 2× MIC after 24 h on LB without selection.
Setting [14] is: colony 13, plates with 2× MIC after 24 h on LB without selection.
The mark [15] stands for this setting: colony 14, plates with 2× MIC after 24 h on LB without selection.
The mark [16] stands for this setting: colony 15, plates with 2× MIC after 24 h on LB without selection.
[17] abbreviates: colony 16, plates with 2× MIC after 24 h on LB without selection.
[18] abbreviates: colony 17 (first line so numbered, r20), plates with 2× MIC after 24 h on LB without selection.
The mark [19] stands for this setting: colony 17 (second line so numbered, r21), plates with 2× MIC after 24 h on LB without selection.
Setting [20] is: colony 19, plates with 2× MIC after 24 h on LB without selection.
Where [21] appears, read: colony 20, plates with 2× MIC after 24 h on LB without selection.
Setting [22] is: colony 21, plates with 2× MIC after 24 h on LB without selection.
The mark [23] stands for this setting: colony 22, plates with 2× MIC after 24 h on LB without selection.
Setting [24] is: colony 23, plates with 2× MIC after 24 h on LB without selection.
The mark [25] stands for this setting: colony 24, plates with 2× MIC after 24 h on LB without selection.
Setting [26] is: colony 25, plates with 2× MIC after 24 h on LB without selection.
The mark [27] stands for this setting: colony 26, plates with 2× MIC after 24 h on LB without selection.
[28] abbreviates: colony 27, plates with 2× MIC after 24 h on LB without selection.

SMILES strings stand for the structures. ≈ marks a conversion by molar mass, not a printed value. Where two headings read alike, the source gives them in different places.

Take `CN(C)[C@@H]1C(O)=C(C(N)=O)C(=O)[C@@]2(O)C(O)=C3C(=O)c4c(O)cccc4[C@@](C)(O)[C@H]3C[C@@H]12` [TET, tetracycline]: the Antibiotic resistance result in test [1] is “No and Yes”.
As for `O=C(N[C@H](CO)[C@H](O)c1ccc([N+](=O)[O-])cc1)C(Cl)Cl` [CHL, chloramphenicol], the Antibiotic resistance entry in test [1] (setting [2]) is “No”; in test [1] (setting [3]), “No”; in test [1] (setting [4]) it was “Yes”; in [1] (setting [5]), “Yes”; in test [1] (setting [6]), “Yes”; in test [1] (setting [7]) it was “Yes”. For the same compound, the Antibiotic resistance result in test [1] (setting [8]), in test [1] (setting [9]), in test [1] (setting [10]), in test [1] (setting [11]), in test [1] (setting [12]) and in test [1] (setting [13]) was “Yes” in each case. Also, the Antibiotic resistance entry in test [1] (setting [14]), in test [1] (setting [15]), in test [1] (setting [16]), in test [1] (setting [17]), in test [1] (setting [18]) and in [1] (setting [19]) was “Yes” in each case. In addition, the Antibiotic resistance result in test [1] (setting [20]), in test [1] (setting [21]), in [1] (setting [22]), in [1] (setting [23]), in test [1] (setting [24]) and in [1] (setting [25]) was “Yes” in each case. Besides, the Antibiotic resistance result in [1] (setting [26]), in [1] (setting [27]) and in test [1] (setting [28]) was “Yes” each time. Also, the “Colonies that retained resistance” value in [1] (of 27 CHL-resistant colonies from CIP treatment, cultured without selection) came to 25. For the same compound, the “Increase in the MIC compared to the WT strain” value in the test on E. coli marR mutant was “eightfold”.
Take `CC1(C)S[C@@H]2[C@H](NC(=O)[C@H](N)c3ccccc3)C(=O)N2[C@H]1C(=O)O` [AMP, ampicillin]: the Antibiotic resistance result in [1] (setting [2]) was “No”; in [1] (setting [3]), “No”; in test [1] (setting [4]), “No”; in test [1] (setting [5]), “No”; in test [1] (setting [6]), “No”; in test [1] (setting [7]), “Yes”. In addition, the Antibiotic resistance result in [1] (setting [8]), in test [1] (setting [9]), in test [1] (setting [10]), in test [1] (setting [11]), in [1] (setting [12]) and in test [1] (setting [13]) was “No” each time. Moreover, the Antibiotic resistance result in test [1] (setting [14]), in [1] (setting [15]), in test [1] (setting [16]), in test [1] (setting [17]), in test [1] (setting [18]) and in test [1] (setting [19]) was “No” throughout. Besides, the Antibiotic resistance entry in [1] (setting [20]), in test [1] (setting [21]), in test [1] (setting [22]), in [1] (setting [23]), in test [1] (setting [24]) and in [1] (setting [25]) was “No” each time. The Antibiotic resistance result in test [1] (setting [26]), in [1] (setting [27]) and in test [1] (setting [28]) was “No” each time.
For the compound `Oc1cc(Cl)ccc1Oc1ccc(Cl)cc1Cl` [TRI, triclosan], the Antibiotic resistance result is given as “No” in test [1] (setting [2]); “No” in test [1] (setting [3]); “Yes” in test [1] (setting [4]); “No” in test [1] (setting [5]); “No” in test [1] (setting [6]); “No” in [1] (setting [7]). Besides, the Antibiotic resistance result was “Yes” in test [1] (setting [8]); “Yes” in [1] (setting [9]); “No” in test [1] (setting [10]); “Yes” in test [1] (setting [11]); “No” in test [1] (setting [12]); “No” in test [1] (setting [13]). For the same compound, the Antibiotic resistance result in test [1] (setting [14]), in test [1] (setting [15]), in [1] (setting [16]), in test [1] (setting [17]), in [1] (setting [18]) and in test [1] (setting [19]) was “No” throughout. Further, the Antibiotic resistance result in test [1] (setting [20]), in [1] (setting [21]), in test [1] (setting [22]), in test [1] (setting [23]), in test [1] (setting [24]) and in [1] (setting [25]) was “No” each time. Further, the Antibiotic resistance result in test [1] (setting [26]), in test [1] (setting [27]) and in [1] (setting [28]) was “No” in each case.
Consider `O=C(O)c1cn(C2CC2)c2cc(N3CCNCC3)c(F)cc2c1=O` [CIP, ciprofloxacin], for which the MIC with MG1655 ∆dinB was determined as 0.032 µg/mL (≈ 0.0966 µM); with MG1655 ∆umuD it was 0.021 µg/mL (≈ 0.0634 µM); with MG1655 lexA(S119A), 0.008 µg/mL (≈ 0.0241 µM); against MG1655 ∆polB, 0.032 µg/mL (≈ 0.0966 µM); in the test with MG1655 ΔdinB ΔpolB ΔumuD it was 0.032 µg/mL (≈ 0.0966 µM); against MG1655 ∆recA, 0.006 µg/mL (≈ 0.0181 µM). The compound also returned a minimum inhibitory concentration (MIC) against E. coli MLS83L of 0.256 µg/mL (≈ 0.773 µM).
Consider `[H]/N=C(/N)N[C@H]1[C@H](O)[C@@H](O)[C@H](O[C@@H]2O[C@@H](C)[C@](O)(C=O)[C@H]2O[C@@H]2O[C@@H](CO)[C@H](O)[C@@H](O)[C@@H]2NC)[C@@H](N/C(N)=N\[H])[C@@H]1O` [STR, streptomycin], for which the Antibiotic resistance result is “No” in test [1] (setting [2]); “No” in test [1] (setting [3]); “No” in [1] (setting [4]); “Yes” in test [1] (setting [5]); “No” in [1] (setting [6]); “No” in [1] (setting [7]). Besides, the Antibiotic resistance result in [1] (setting [8]), in test [1] (setting [9]), in test [1] (setting [10]), in [1] (setting [11]), in [1] (setting [12]) and in test [1] (setting [13]) was “No” in each case. For the same compound, the Antibiotic resistance result in [1] (setting [14]), in test [1] (setting [15]), in test [1] (setting [16]), in [1] (setting [17]), in test [1] (setting [18]) and in [1] (setting [19]) was “No” each time. The Antibiotic resistance result in test [1] (setting [20]), in [1] (setting [21]), in test [1] (setting [22]), in [1] (setting [23]), in test [1] (setting [24]) and in test [1] (setting [25]) was “No” throughout. Also, the Antibiotic resistance entry in test [1] (setting [26]), in [1] (setting [27]) and in test [1] (setting [28]) was “No” each time.
As to `CO[C@H]1/C=C/O[C@@]2(C)Oc3c(C)c(O)c4c(O)c(c(/C=N/N5CCN(C)CC5)c(O)c4c3C2=O)NC(=O)/C(C)=C\C=C\[C@H](C)[C@H](O)[C@@H](C)[C@@H](O)[C@@H](C)[C@H](OC(C)=O)[C@@H]1C` [RIF, rifampin], the Antibiotic resistance result in test [1] was “No”.
Same read-out and setting: the result for `COc1cc(Cc2cnc(N)nc2N)cc(OC)c1OC` [TMP, trimethoprim] reads “No and Yes”; that for `NC[C@H]1O[C@H](O[C@H]2[C@H](O)[C@@H](O[C@H]3O[C@H](CO)[C@@H](O)[C@H](N)[C@H]3O)[C@H](N)C[C@@H]2N)[C@H](O)[C@@H](O)[C@@H]1O` [KAN, kanamycin], “No”.

In general, MIC refers to the lowest concentration that inhibits growth of the organism. Read a low MIC as inhibition by little substance.
